Biological target: T1, CDK2 (Homo sapiens, UniProt P24941)
T1 construct: High-Throughput Measurement of Cellular Endogenous CDK2; endogenous in cells; host or cells: OVCAR3
Assay: Inhibition of CDK2: phospho-Rb (S807/811) HTRF measurement in OVCAR3 cells, 24 h
Format: cell-based
Details: 24 h compound treatment, read-out: pRB_OVCAR3_24h
Outline: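 IC50 came from a four-parameter fit of DMSO-normalized TR-FRET ratios (665/620 nm) reporting phospho-Rb S807/811. Lysates were taken from OVCAR3 cultures treated 24 h with compound (0.3 to 10,000 nM) and incubated 4 h at room temperature with the antibody pair.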

SMILES	IC50 [nM]
Cn1nc(N2CCC(=O)NC2=O)c2ccc(C3CCN(Cc4cnn(C5CCN(S(=O)(=O)N6CCC(Nc7ncc(Cl)cn7)CC6)CC5)c4)CC3)cc21 [Example 163, 1-(6-(1-((1-(1-((4-((5-chloropyrimidin-2-yl)amino)piperidin-1-yl)sulfonyl)piperidin-4-yl)-1H-pyrazol-4-yl)methyl)piperidin-4-yl)-1-methyl-1H-indazol-3-yl)dihydropyrimidine-2,4(1H,3H)-dione]	> 2500
Cn1nc(C2CCC(=O)NC2=O)c2ccc(C3CCN(CC4CCN(c5cccc(S(=O)(=O)N6CCC(Nc7ncc(Cl)cn7)CC6)c5)CC4)CC3)cc21 (stereo not drawn) [Example 246, 3-(6-(1-((1-(3-((4-((5-chloropyrimidin-2-yl)amino)piperidin-1-yl)sulfonyl)phenyl)piperidin-4-yl)methyl)piperidin-4-yl)-1-methyl-1H-indazol-3-yl)piperidine-2,6-dione]	500 to 2500
Cn1nc(N2CCC(=O)NC2=O)c2ccc(N3CCN(CC4CCN(c5cccc(S(=O)(=O)N6CCC(Nc7ncc(C(F)(F)F)cn7)CC6)c5)CC4)CC3)cc21 [Example 51, 1-(1-methyl-6-(4-((1-(3-((4-((5-(trifluoro-methyl)pyrimidin-2-yl)amino)piperidin-1-yl)sulfonyl)phenyl)piperidin-4-yl)methyl)piperazin-1-yl)-1H-indazol-3-yl)dihydropyrimidine-2,4(1H,3H)-dione]	500 to 2500
COc1cnc(NC2CCN(S(=O)(=O)c3cccc(CN4CCC(c5ccc6c(N7CCC(=O)NC7=O)nn(C)c6c5)CC4)c3)CC2)nc1 [Example 57, 1-(6-(1-(3-((4-((5-methoxypyrimidin-2-yl)amino)piperidin-1-yl)sulfonyl)benzyl)-piperidin-4-yl)-1-methyl-1H-indazol-3-yl)dihydropyrimidine-2,4(1H,3H)-dione]	500 to 2500
Cn1nc(N2CCC(=O)NC2=O)c2ccc(C3CCN(Cc4cccc(S(=O)(=O)N5CC6(CC(Nc7ncc(C(F)(F)F)cn7)C6)C5)c4)CC3)cc21 [Example 146, 1-(1-methyl-6-(1-(3-((6-((5-(trifluoro-methyl)pyrimidin-2-yl)amino)-2-azaspiro[3.3]heptan-2-yl)sulfonyl)benzyl)-piperidin-4-yl)-1H-indazol-3-yl)dihydropyrimidine-2,4(1H,3H)-dione]	> 2500
Cn1nc(N2CCC(=O)NC2=O)c2ccc(N3CCN(Cc4cccc(S(=O)(=O)[C@H]5CC[C@H](Nc6ncc(Cl)cn6)CC5)c4)CC3)cc21 [Example 67, 1-(6-(4-(3-(((1r,4r)-4-((5-chloropyrimidin-2-yl)amino)cyclohexyl)sulfonyl)benzyl)piperazin-1-yl)-1-methyl-1H-indazol-3-yl)dihydropyrimidine-2,4(1H,3H)-dione]	> 2500
Cn1nc(N2CCC(=O)NC2=O)c2ccc(C3CN(Cc4cccc(S(=O)(=O)N5CCC(Nc6ncc(OC(F)F)cn6)CC5)c4)C3)cc21 [Example 81, 1-(6-(1-(3-((4-((5-(difluoromethoxy)-pyrimidin-2-yl)amino)piperidin-1-yl)sulfonyl)benzyl)azetidin-3-yl)-1-methyl-1H-indazol-3-yl)dihydropyrimidine-2,4(1H,3H)-dione]	500 to 2500
Cn1nc(N2CCC(=O)NC2=O)c2ccc(N3C4CCC3CN(CC3CCN(c5cccc(S(=O)(=O)N6CCC(Nc7ncc(Cl)cn7)CC6)c5)CC3)C4)cc21 [Example 104, 1-(6-(3-((1-(3-((4-((5-chloropyrimidin-2-yl)amino)piperidin-1-yl)sulfonyl)phenyl)-piperidin-4-yl)methyl)-3,8-diaza-bicyclo[3.2.1]octan-8-yl)-1-methyl-1H-indazol-3-yl)dihydropyrimidine-2,4(1H,3H)-dione]	> 2500
Cn1nc(N2CCC(=O)NC2=O)c2cc(F)c(N3CCN(CC4CCN(c5cccc(S(=O)(=O)N6CCC(Nc7ncc(Cl)cn7)CC6)c5)CC4)CC3)cc21 [Example 111, 1-(6-(4-((1-(3-((4-((5-chloropyrimidin-2-yl)amino)piperidin-1-yl)sulfonyl)phenyl)-piperidin-4-yl)methyl)piperazin-1-yl)-5-fluoro-1-methyl-1H-indazol-3-yl)dihydropyrimidine-2,4(1H,3H)-dione]	500 to 2500

The next lines start with the values.

IC50 [nM]	SMILES
100 to 500	Cn1nc(N2CCC(=O)NC2=O)c2ccc(C3CCN(Cc4cc(S(=O)(=O)N5CCC(Nc6ncc(OC(F)F)cn6)CC5)ccc4C#N)CC3)cc21 [Example 169, 4-((4-((5-(difluoromethoxy)pyrimidin-2-yl)amino)piperidin-1-yl)sulfonyl)-2-((4-(3-(2,4-dioxotetrahydropyrimidin-1(2H)-yl)-1-methyl-1H-indazol-6-yl)piperidin-1-yl)methyl)benzonitrile]
100 to 500	Cn1nc(N2CCC(=O)NC2=O)c2ccc(C3CCN(C[C@@H]4CCCN(c5cccc(S(=O)(=O)N6CCC(Nc7ncc(OC(F)F)cn7)CC6)c5)C4)CC3)cc21 [Example 257, (S)-1-(6-(1-((1-(3-((4-((5-(difluoromethoxy)pyrimidin-2-yl)amino)piperidin-1-yl)sulfonyl)phenyl)piperidin-3-yl)methyl)piperidin-4-yl)-1-methyl-1H-indazol-3-yl)dihydropyrimidine-2,4(1H,3H)-dione]
100 to 500	Cn1nc(N2CCC(=O)NC2=O)c2ccc(C3CCN(CC4CCC(c5cccc(S(=O)(=O)N6CCC(Nc7ncc(Cl)cn7)CC6)c5)CC4)CC3)cc21 (stereo not drawn) [Example 156, 1-(6-(1-((4-(3-((4-((5-chloropyrimidin-2-yl)amino)piperidin-1-yl)sulfonyl)phenyl)cyclohexyl)methyl)piperidin-4-yl)-1-methyl-1H-indazol-3-yl)dihydropyrimidine-2,4(1H,3H)-dione 2,2,2-trifluoroacetate]
100 to 500	Cn1nc(N2CCC(=O)NC2=O)c2ccc(C3CCN(C[C@@H]4CCN(c5cccc(S(=O)(=O)N6CCC(Nc7ncc(Cl)cn7)CC6)c5)C4)CC3)cc21 [Example 135, (S)-1-(6-(1-((1-(3-((4-((5-chloropyrimidin-2-yl)amino)piperidin-1-yl)sulfonyl)phenyl)-pyrrolidin-3-yl)methyl)piperidin-4-yl)-1-methyl-1H-indazol-3-yl)dihydropyrimidine-2,4(1H,3H)-dione]
100 to 500	Cn1nc(N2CCC(=O)NC2=O)c2ccc(N3CC4(CN(Cc5cccc(S(=O)(=O)N6CCC(Nc7ncc(C(F)(F)F)cn7)CC6)c5)C4)C3)cc21 [Example 4, 1-(1-methyl-6-(6-(3-((4-((5-(trifluoromethyl)pyrimidin-2-yl)amino)piperidin-1-yl)sulfonyl)benzyl)-2,6-diazaspiro[3.3]heptan-2-yl)-1H-indazol-3-yl)dihydropyrimidine-2,4(1H,3H)-dione]
100 to 500	Cn1nc(N2CCC(=O)NC2=O)c2ccc(C3CCN(CC4CCCN(c5cccc(S(=O)(=O)N6CCC(Nc7ncc(Cl)cn7)CC6)c5)CC4)CC3)cc21 (stereo not drawn) [Example 136, 1-(6-(1-((1-(3-((4-((5-chloropyrimidin-2-yl)amino)piperidin-1-yl)sulfonyl)phenyl)-azepan-4-yl)methyl)piperidin-4-yl)-1-methyl-1H-indazol-3-yl)dihydropyrimidine-2,4(1H,3H)-dione]
100 to 500	O=C1CCC(N2C(=O)c3cc(F)c(N4CCN(CC5CCN(c6cccc(S(=O)(=O)N7CCC(Nc8ncc(C(F)(F)F)cn8)CC7)c6)CC5)CC4)cc3C2=O)C(=O)N1 (stereo not drawn) [Example 80, 2-(2,6-dioxopiperidin-3-yl)-5-fluoro-6-(4-((1-(3-((4-((5-(trifluoromethyl)pyrimidin-2-yl)amino)piperidin-1-yl)sulfonyl)phenyl)-piperidin-4-yl)methyl)piperazin-1-yl)isoindoline-1,3-dione]
100 to 500	CC1(C)C(=O)N(C2CCC(=O)NC2=O)c2cccc(C3CCN(CC4CCN(c5cc(S(=O)(=O)N6CCC(Nc7ncc(Cl)cn7)CC6)ccc5C#N)CC4)CC3)c21 (stereo not drawn) [Example 207, 4-((4-((5-chloropyrimidin-2-yl)amino)piperidin-1-yl)sulfonyl)-2-(4-((4-(1-(2,6-dioxopiperidin-3-yl)-3,3-dimethyl-2-oxoindolin-4-yl)piperidin-1-yl)methyl)piperidin-1-yl)benzonitrile]
100 to 500	Cn1nc(N2CCC(=O)NC2=O)c2ccc(C3CCN(CC4CCN(c5cccc(S(=O)(=O)N6CCC(Nc7ncc(OC8CC8)cn7)CC6)c5)CC4)CC3)cc21 [Example 252, 1-(6-(1-((1-(3-((4-((5-cyclopropoxypyrimidin-2-yl)amino)piperidin-1-yl)sulfonyl)phenyl)piperidin-4-yl)methyl)piperidin-4-yl)-1-methyl-1H-indazol-3-yl)dihydropyrimidine-2,4(1H,3H)-dione]
1 to 100	O=C1CCC(n2c(=O)n(CC3CCN(CC4CCN(c5cccc(S(=O)(=O)N6CCC(Nc7ncc(C(F)(F)F)cn7)CC6)c5)CC4)CC3)c3ccccc32)C(=O)N1 (stereo not drawn) [Example 186, 3-(2-oxo-3-((1-((1-(3-((4-((5-(trifluoromethyl)pyrimidin-2-yl)amino)piperidin-1-yl)sulfonyl)phenyl)piperidin-4-yl)methyl)piperidin-4-yl)methyl)-2,3-dihydro-1H-benzo[d]imidazol-1-yl)piperidine-2,6-dione]
1 to 100	Cn1nc(N2CCC(=O)NC2=O)c2ccc(C3CCN(Cc4ccc(S(=O)(=O)N5CCC(Nc6ncc(Cl)cn6)CC5)cc4)CC3)cc21 [Example 63, 1-(6-(1-(4-((4-((5-chloropyrimidin-2-yl)amino)piperidin-1-yl)sulfonyl)benzyl)-piperidin-4-yl)-1-methyl-1H-indazol-3-yl)dihydropyrimidine-2,4(1H,3H)-dione]
100 to 500	Cn1nc(N2CCC(=O)NC2=O)c2ccc(C3CCN(C[C@H]4CCCN(c5cccc(S(=O)(=O)N6CCC(Nc7ncc(OC(F)F)cn7)CC6)c5)C4)CC3)cc21 [Example 258, (R)-1-(6-(1-((1-(3-((4-((5-(difluoromethoxy)pyrimidin-2-yl)amino)piperidin-1-yl)sulfonyl)phenyl)piperidin-3-yl)methyl)piperidin-4-yl)-1-methyl-1H-indazol-3-yl)dihydropyrimidine-2,4(1H,3H)-dione]

Reference: patent US20260167623A1 (NIKANG THERAPEUTICS, INC., priority 2022, published 2026)
